From patent US20150017203A1, “COMBINATION PRODUCT FOR TREATING EXCESS WEIGHT AND/OR FOR IMPROVING THE FIGURE” (INSTITUT NATIONAL DE LA RECHERCHE AGRONOMIQUE - INRA, priority 2012, published 2015)

Legend:
[1] = Plasma dosages (non-esterified fatty acids, triglycerides, cholesterol, glucose); type: in vivo, mice; conditions: for Cholesterolemia compared to control mice: ANOVA p=0.01
Procedure: 100 male mice C57 Black 6/J aged 5 weeks (January, France) were accommodated in individual cages in the pet center of the INRA center, Theix, in thermoregulated premises (20-22° C.) and submitted to alternating 12 hour-cycles of light and darkness. […] The mice weight was measured every 2 weeks. Prior to being sacrificed, mice after 15 h fasting were anesthetized through barbital intraperitoneal injection (1.5 μl/g). Blood was collected in EDTA-containing specimen collectors before being centrifuged (12000 rpm, 4 min, room temperature). Plasma was thereafter collected, distributed in aliquots and frozen in liquid nitrogen, then stored at −80° C. The adipose peri-epididymal tissue, liver and leg triceps muscle (gastrocnemius muscle), tibialis and quadriceps muscles were weighted, frozen in liquid nitrogen, then stored at −80° C.

[2] = Glucose tolerance measurement (ipGTT test); type: in vivo, mice; conditions: for Glucose tolerance: difference with high-lipid diet alone (HL), mice, 3 weeks; for Glucose tolerance compared to the control regimen: ipGTT, glucose 2 mg/g i.p., vs control
Procedure: (§1) 100 male mice C57 Black 6/J aged 5 weeks (January, France) were accommodated in individual cages in the pet center of the INRA center, Theix, in thermoregulated premises (20-22° C.) and submitted to alternating 12 hour-cycles of light and darkness. After a week of acclimatization under a <<control regimen>> (D12450B, Research Diet, USA), 20 mice continued this regimen for 11 weeks. The other 80 mice were fed with a ? high-lipid regimen ? (HL) (D12451, Research Diet, USA) for 8 weeks. The total calorie intake, in percentages, provided for both the <> and HL regimens 20% proteins and respectively, 70% and 35% carbohydrates and 10% and 45% lipids. […] The mice weight was measured every 2 weeks.
(§2) After a 3-week pharmaco-nutritional regimen, measurements of the insulin sensitivity and glucose tolerance were conducted respectively on 10 mice of each group after a fasting night. Insulin sensitivity measurement: basal glycemia was evaluated using a glucose meter (Glucotouch, Lifescan, USA) on blood droplets collected from the tail. An insulin dose of 0.75 mU/g of weight was administered through intraperitoneal injection and glycemia was evaluated 15, 30, 45, 60 and 120 minutes post injection. Glucose tolerance measurement: a glucose dose (2 mg/g of weight) was administered through intraperitoneal injection. Glycemia was evaluated as for the insulin sensitivity test before and 15, 30, 60 and 120 minutes post injection.
Glucose tolerance measurement (ipGTT test): glucose tolerance is defined as the ability for a mouse to normalize its glycemia when injecting glucose. It is evaluated through the calculation of the area under the curve of the glycemia evolution after an injection of glucose.

[3] = Body composition measurement through Echo MRI (body fat, lean body mass); type: in vivo, mice; conditions: for Total body fat vs control regimen (Echo MRI): day 80, vs mice under control regimen; for Body fat: difference with high-lipid diet alone (HL), mice, 3 weeks
Procedure: as §1
Body fat and lean body mass of awake mice after 15 h fasting were quantified using nuclear magnetic resonance (Echo MRI, Houston, USA) at day 80 of the experiment.

[4] = Organ and tissue weights at sacrifice (peri-epididymal adipose tissue, leg muscles, liver); type: in vivo; conditions: vs mice under control regimen
Procedure: as §1
Prior to being sacrificed, mice after 15 h fasting were anesthetized through barbital intraperitoneal injection (1.5 μl/g). Blood was collected in EDTA-containing specimen collectors before being centrifuged (12000 rpm, 4 min, room temperature). Plasma was thereafter collected, distributed in aliquots and frozen in liquid nitrogen, then stored at −80° C. The adipose peri-epididymal tissue, liver and leg triceps muscle (gastrocnemius muscle), tibialis and quadriceps muscles were weighted, frozen in liquid nitrogen, then stored at −80° C.

[5] = Insulin sensitivity measurement (ipITT test); type: in vivo, mice; conditions: for Insulin sensitivity: difference with high-lipid diet alone (HL), mice, 3 weeks
Procedure: as §1, §2

[6] = Mice weight under high-lipid diet, 3-week pharmaco-nutritional regimen; type: in vivo; conditions: after 3-week regimen; vs control regimen
Procedure: as §1

[7] = conclusions of several clinical assays; cited from earlier work
[8] = taking statin in the long term; cited from earlier work
[9] = difference with high-lipid diet alone (HL), mice, 3 weeks

| SMILES | Plasma levels: Non esterified fatty acids [1, 9] [%] | Plasma levels: Triglycerides [1, 9] [%] | Plasma levels of non-esterified fatty acids compared to control mice ([1]; vs control mice) | Triglyceridemia compared to control mice ([1]; vs control mice) | Cholesterolemia compared to control mice ([1]; vs control mice) | Glucose tolerance [2] | Glucose tolerance compared to the control regimen [2] | Total body fat vs control regimen (Echo MRI) [3] | Body fat [3] [%] | Weight of peri-epididymal adipose tissue vs control regimen [4] | Insulin sensitivity [5] | Insulin sensitivity compared to controls ([5]; ipITT, insulin 0.75 mU/g i.p., vs control) | Mice weight as compared to the controls [6] | Development of type 2 diabetes [7] | Influence on body fat [8] |
| --- | --- | --- | --- | --- | --- | --- | --- | --- | --- | --- | --- | --- | --- | --- | --- |
| NC(=O)NCCC[C@H](N)C(=O)O [L-citrulline, L-Citrulline] | −24 | −15 | at a similar level compared to the control mice | bring triglyceridemia back to the level of that obtained in control mice | significant increase in cholesterolemia | +7% | significant reduction of glucose tolerance | +100% | −7 | doubled | +5% | tend to be less sensitive to insulin | significantly higher | – | – |
| CC(C)c1c(C(=O)Nc2ccccc2)c(-c2ccccc2)c(-c2ccc(F)cc2)n1CC[C@@H](O)C[C@@H](O)CC(=O)O [Statin, Atorvastatin] | – | – | – | bring triglyceridemia back to the level of that obtained in control mice | significant increase in cholesterolemia | +11% | significant reduction of glucose tolerance | +87% | −13 | doubled | +31% | – | significantly higher | would promote the development of type 2 diabetes | has not any positive influence on body fat |
| CC(C)c1nc(N(C)S(C)(=O)=O)nc(-c2ccc(F)cc2)c1/C=C/[C@@H](O)C[C@@H](O)CC(=O)O [rosuvastatin] | – | – | – | – | – | – | – | – | – | – | – | – | – | would promote the development of type 2 diabetes | – |
